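How tested: cells in 96-well plates exposed to compound for 48 hours at five concentrations. GI50: concentration for 50% inhibition of growth.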 The source made the active and inactive calls. Rule as the data show it: active = GI50 up to about 1.1 µM and inactive = higher.
Columns and labels:
Test in all cases: NCI-60 cell line screen, 48 h
NCI-H226 = test system: NCI-H226
SF-539 = test system: SF-539
EKVX = test system: EKVX
A498 = test system: A498
MDA-N = test system: MDA-N
OVCAR-8 = test system: OVCAR-8
HOP-92 = test system: HOP-92
SF-295 = test system: SF-295
Hs-578T = test system: Hs-578T
HOP-62 = test system: HOP-62
RXF 393 = test system: RXF 393
SW-620 = test system: SW-620
UACC-257 = test system: UACC-257
SN12C = test system: SN12C
MOLT-4 = test system: MOLT-4
MCF7 = test system: MCF7
M14 = test system: M14
NCI-H23 = test system: NCI-H23
UACC-62 = test system: UACC-62
ACHN = test system: ACHN
SNB-75 = test system: SNB-75
LOX IMVI = test system: LOX IMVI
T47D = test system: T47D
NCI-H522 = test system: NCI-H522
MDA-MB-435 = test system: MDA-MB-435
CAKI-1 = test system: CAKI-1
MDA-MB-231 = test system: MDA-MB-231
SK-MEL-2 = test system: SK-MEL-2
U-251 = test system: U-251
SK-OV-3 = test system: SK-OV-3
IGROV-1 = test system: IGROV-1
NCI/ADR-RES = test system: NCI/ADR-RES
DU-145 = test system: DU-145
HT-29 = test system: HT-29
HCC 2998 = test system: HCC 2998
OVCAR-5 = test system: OVCAR-5
OVCAR-4 = test system: OVCAR-4
NCI-H460 = test system: NCI-H460
HCT-15 = test system: HCT-15
UO-31 = test system: UO-31
K562 = test system: K562
SK-MEL-5 = test system: SK-MEL-5
SR = test system: SR
COLO 205 = test system: COLO 205
OVCAR-3 = test system: OVCAR-3
SF-268 = test system: SF-268
PC-3 = test system: PC-3
TK-10 = test system: TK-10
A549 = test system: A549
Malme-3M = test system: Malme-3M
HL-60 = test system: HL-60
RPMI-8226 = test system: RPMI-8226
BT-549 = test system: BT-549
CCRF-CEM = test system: CCRF-CEM
SNB-19 = test system: SNB-19
SK-MEL-28 = test system: SK-MEL-28
KM12 = test system: KM12
HCT-116 = test system: HCT-116
786-0 = test system: 786-0
DLD-1 = test system: DLD-1
LXFL 529 = test system: LXFL 529
XF498 = test system: XF498
M19-MEL = test system: M19-MEL
SNB-78 = test system: SNB-78
KM-20L2 = test system: KM-20L2
DMS-114 = test system: DMS-114
DMS-273 = test system: DMS-273

Measured: GI50

CCN1CCC(O)(/C=C/c2ccc(C)cc2)C(C(=O)/C=C/c2ccc(C)cc2)C1 (configuration not stated)
inactive: NCI-H226 15.5 µM | SF-539 3.61 µM | EKVX 13.2 µM | A498 10.3 µM | MDA-N 3.18 µM | OVCAR-8 2.81 µM | HOP-92 6.81 µM | SF-295 10.6 µM | Hs-578T 1.86 µM | HOP-62 12.5 µM | RXF 393 2.79 µM | SW-620 1.75 µM | UACC-257 12.5 µM | SN12C 7.69 µM | MOLT-4 1.63 µM | MCF7 2.36 µM | M14 2.83 µM | NCI-H23 6.35 µM | UACC-62 3.08 µM | ACHN 3.7 µM | SNB-75 9.79 µM | LOX IMVI 1.31 µM | T47D 2.82 µM | NCI-H522 1.7 µM | MDA-MB-435 2.93 µM | CAKI-1 2.78 µM | MDA-MB-231 2.07 µM | SK-MEL-2 3.75 µM | U-251 3.12 µM | SK-OV-3 15.6 µM | IGROV-1 6.55 µM | NCI/ADR-RES 2.61 µM | DU-145 11.8 µM | HT-29 2.61 µM | HCC 2998 2.29 µM | OVCAR-5 10.5 µM | OVCAR-4 9.82 µM | NCI-H460 4.45 µM | UO-31 3.85 µM | K562 2.36 µM | SK-MEL-5 3.43 µM | SR 2.37 µM | COLO 205 1.75 µM | OVCAR-3 6.32 µM | SF-268 9.57 µM | PC-3 4.49 µM | TK-10 5.45 µM | A549 8.24 µM | Malme-3M 6.75 µM | HL-60 1.79 µM | RPMI-8226 2.77 µM | BT-549 3.5 µM | CCRF-CEM 1.73 µM | SNB-19 9.42 µM | SK-MEL-28 5.86 µM | KM12 2.19 µM | HCT-116 1.91 µM | 786-0 2.08 µM
4.06 µM: HCT-15

CCOC(=O)C(Oc1ccc(OC)c2c1C(=O)CCC2)c1ccccc1 (configuration not stated)
inactive: SF-539 > 100 µM | EKVX 50.2 µM | A498 > 100 µM | OVCAR-8 > 100 µM | SF-295 69.5 µM | HOP-62 > 100 µM | SW-620 > 100 µM | UACC-257 > 100 µM | DLD-1 > 100 µM | LXFL 529 > 100 µM | SN12C > 100 µM | MOLT-4 33.7 µM | M14 > 100 µM | NCI-H23 25.5 µM | UACC-62 69.3 µM | ACHN > 100 µM | XF498 > 100 µM | LOX IMVI > 100 µM | NCI-H522 94 µM | CAKI-1 > 100 µM | M19-MEL > 100 µM | SK-MEL-2 > 100 µM | U-251 > 100 µM | SK-OV-3 > 100 µM | IGROV-1 > 100 µM | HT-29 53.1 µM | HCC 2998 > 100 µM | OVCAR-5 > 100 µM | OVCAR-4 48.9 µM | SNB-78 74 µM | NCI-H460 > 100 µM | KM-20L2 > 100 µM | UO-31 53.2 µM | K562 49.2 µM | SK-MEL-5 43.2 µM | COLO 205 > 100 µM | OVCAR-3 > 100 µM | SF-268 > 100 µM | DMS-114 84.7 µM | TK-10 > 100 µM | A549 > 100 µM | Malme-3M > 100 µM | HL-60 49 µM | RPMI-8226 45.9 µM | CCRF-CEM 65.5 µM | SNB-19 > 100 µM | DMS-273 98.9 µM | SK-MEL-28 > 100 µM | KM12 > 100 µM | HCT-116 84.7 µM | 786-0 > 100 µM
> 100 µM: HCT-15

CC(C)OP(=O)(OC(C)C)c1nn(-c2ccc([N+](=O)[O-])cc2)c(=N)s1
> 100 µM: HCT-15
inactive: SF-539 > 100 µM | EKVX > 100 µM | A498 > 100 µM | OVCAR-8 > 100 µM | HOP-92 > 100 µM | SF-295 > 100 µM | HOP-62 > 100 µM | SW-620 > 100 µM | UACC-257 38.1 µM | DLD-1 > 100 µM | SN12C > 100 µM | MOLT-4 75.9 µM | M14 > 100 µM | NCI-H23 > 100 µM | UACC-62 > 100 µM | ACHN 80.5 µM | XF498 89.5 µM | SNB-75 15 µM | NCI-H522 47.2 µM | CAKI-1 > 100 µM | M19-MEL > 100 µM | U-251 > 100 µM | SK-OV-3 > 100 µM | IGROV-1 > 100 µM | HT-29 > 100 µM | HCC 2998 65.5 µM | OVCAR-5 > 100 µM | OVCAR-4 > 100 µM | NCI-H460 > 100 µM | KM-20L2 > 100 µM | UO-31 60.4 µM | K562 61.8 µM | SK-MEL-5 69.5 µM | COLO 205 > 100 µM | OVCAR-3 77.8 µM | SF-268 > 100 µM | DMS-114 56.9 µM | TK-10 > 100 µM | A549 > 100 µM | Malme-3M > 100 µM | HL-60 68.1 µM | RPMI-8226 > 100 µM | CCRF-CEM > 100 µM | SNB-19 > 100 µM | SK-MEL-28 > 100 µM | KM12 > 100 µM | HCT-116 > 100 µM

Cc1nc2c(n1CC(C)C)C(=O)c1ccccc1C2=O
inactive: NCI-H226 > 100 µM | SF-539 24.8 µM | EKVX 38 µM | OVCAR-8 35.5 µM | HOP-92 10.4 µM | SF-295 39.2 µM | HOP-62 42.1 µM | RXF 393 35.2 µM | SW-620 41.1 µM | UACC-257 17.7 µM | DLD-1 36.6 µM | LXFL 529 42.6 µM | SN12C 37.1 µM | MOLT-4 38.6 µM | M14 61.7 µM | NCI-H23 18 µM | UACC-62 20.7 µM | ACHN 32.1 µM | XF498 33.3 µM | SNB-75 42.8 µM | LOX IMVI 29.3 µM | NCI-H522 26.5 µM | M19-MEL 15.7 µM | SK-MEL-2 25.5 µM | U-251 38.6 µM | SK-OV-3 62.4 µM | IGROV-1 32.6 µM | HT-29 34 µM | HCC 2998 71.4 µM | OVCAR-4 43.4 µM | SNB-78 61.9 µM | NCI-H460 23.4 µM | KM-20L2 35.6 µM | UO-31 26.5 µM | K562 29.9 µM | SK-MEL-5 18.8 µM | SR 41.6 µM | COLO 205 36 µM | OVCAR-3 25.4 µM | SF-268 42.8 µM | TK-10 > 100 µM | A549 32.9 µM | Malme-3M 20.6 µM | HL-60 23 µM | CCRF-CEM 38.2 µM | SNB-19 51.5 µM | DMS-273 26.8 µM | SK-MEL-28 67.9 µM | KM12 37.9 µM | HCT-116 20.8 µM | 786-0 55.1 µM
37.5 µM: HCT-15

O=C(N/N=C/C=C/c1ccccc1)[C@H](O)[C@@H](O)C(=O)N/N=C/C=C/c1ccccc1
inactive: SF-539 > 100 µM | EKVX > 100 µM | A498 > 100 µM | OVCAR-8 > 100 µM | SF-295 > 100 µM | RXF 393 > 100 µM | SW-620 > 100 µM | UACC-257 > 100 µM | DLD-1 > 100 µM | LXFL 529 > 100 µM | SN12C > 100 µM | MOLT-4 > 100 µM | NCI-H23 > 100 µM | UACC-62 > 100 µM | ACHN > 100 µM | LOX IMVI > 100 µM | NCI-H522 > 100 µM | M19-MEL > 100 µM | SK-MEL-2 > 100 µM | U-251 > 100 µM | SK-OV-3 > 10 µM | IGROV-1 > 100 µM | HCC 2998 > 100 µM | OVCAR-5 > 100 µM | SNB-78 > 100 µM | NCI-H460 > 100 µM | KM-20L2 > 100 µM | UO-31 > 100 µM | K562 > 100 µM | SK-MEL-5 > 100 µM | SR > 100 µM | COLO 205 > 100 µM | SF-268 > 100 µM | DMS-114 > 100 µM | TK-10 > 100 µM | A549 > 100 µM | Malme-3M > 100 µM | HL-60 > 100 µM | RPMI-8226 > 100 µM | CCRF-CEM > 100 µM | SNB-19 > 100 µM | DMS-273 > 100 µM | SK-MEL-28 > 100 µM | KM12 > 100 µM | HCT-116 > 100 µM
> 100 µM: HCT-15

Source: ChEMBL document CHEMBL1201862, “PubChem BioAssay data set” (2004)
